Results published in ChEMBL document CHEMBL1201862, “PubChem BioAssay data set” (2004).
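48-hour exposure; five concentrations; linearly interpolated endpoints. GI50: concentration for 50% inhibition of growth.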 Activity calls are given as the source filed them. No stated cut-off is given here; in the data, active = GI50 up to about 1.1 µM and inactive = higher.

Legend:
Experiment in all cases: NCI anticancer screen, dose series, 48 h
COLO 205 = tested on: COLO 205
RXF 393 = tested on: RXF 393
UACC-257 = tested on: UACC-257
NCI-H522 = tested on: NCI-H522
HCC 2998 = tested on: HCC 2998
NCI/ADR-RES = tested on: NCI/ADR-RES
SF-539 = tested on: SF-539
HT-29 = tested on: HT-29
RPMI-8226 = tested on: RPMI-8226
UO-31 = tested on: UO-31
KM12 = tested on: KM12
ACHN = tested on: ACHN
CCRF-CEM = tested on: CCRF-CEM
M14 = tested on: M14
A498 = tested on: A498
OVCAR-4 = tested on: OVCAR-4
CAKI-1 = tested on: CAKI-1
MOLT-4 = tested on: MOLT-4
NCI-H460 = tested on: NCI-H460
IGROV-1 = tested on: IGROV-1

Compound: CC(=O)[C@@]1(O)CC[C@H]2[C@@H]3C[C@H](C)C4=CC(=O)CC[C@]4(C)[C@H]3[C@@H](O)C[C@@]21C
- GI50 (COLO 205): > 100 µM (inactive)
- GI50 (RXF 393): > 100 µM (inactive)
- GI50 (UACC-257): > 100 µM (inactive)
- GI50 (NCI-H522): 73.6 µM (inactive)
- GI50 (HCC 2998): > 100 µM (inactive)
- GI50 (NCI/ADR-RES): > 100 µM (inactive)
- GI50 (SF-539): > 100 µM (inactive)
- GI50 (HT-29): > 100 µM (inactive)
- GI50 (RPMI-8226): < 0.01 µM (active)
- GI50 (UO-31): > 100 µM (inactive)
- GI50 (KM12): > 100 µM (inactive)
- GI50 (ACHN): > 100 µM (inactive)
- GI50 (CCRF-CEM): 14.1 µM (inactive)
- GI50 (M14): > 100 µM (inactive)
- GI50 (A498): > 100 µM (inactive)
- GI50 (OVCAR-4): > 100 µM (inactive)
- GI50 (CAKI-1): > 100 µM (inactive)
- GI50 (MOLT-4): 46 µM (inactive)
- GI50 (NCI-H460): > 100 µM (inactive)
- GI50 (IGROV-1): > 100 µM (inactive)

Compound: c1cc(-c2ccsc2-c2ccsc2)cs1
- GI50 (COLO 205): > 87.1 µM (inactive)
- GI50 (RXF 393): 27.4 µM (inactive)
- GI50 (UACC-257): > 100 µM (inactive)
- GI50 (NCI-H522): 26.1 µM (inactive)
- GI50 (HCC 2998): 46.8 µM (inactive)
- GI50 (NCI/ADR-RES): > 100 µM (inactive)
- GI50 (SF-539): > 100 µM (inactive)
- GI50 (HT-29): > 100 µM (inactive)
- GI50 (RPMI-8226): 29.9 µM (inactive)
- GI50 (UO-31): > 90.6 µM (inactive)
- GI50 (KM12): 37.3 µM (inactive)
- GI50 (ACHN): > 100 µM (inactive)
- GI50 (CCRF-CEM): 50.1 µM (inactive)
- GI50 (M14): > 100 µM (inactive)
- GI50 (A498): > 100 µM (inactive)
- GI50 (OVCAR-4): > 55.3 µM (inactive)
- GI50 (CAKI-1): > 100 µM (inactive)
- GI50 (MOLT-4): 25.2 µM (inactive)
- GI50 (NCI-H460): > 100 µM (inactive)
- GI50 (IGROV-1): > 79.3 µM (inactive)

Compound: CCOC(=O)c1cn(CC)c2ccc3ccsc3c2c1=O
- GI50 (COLO 205): > 100 µM (inactive)
- GI50 (RXF 393): > 100 µM (inactive)
- GI50 (UACC-257): > 100 µM (inactive)
- GI50 (NCI-H522): > 100 µM (inactive)
- GI50 (HCC 2998): > 100 µM (inactive)
- GI50 (NCI/ADR-RES): > 100 µM (inactive)
- GI50 (SF-539): > 100 µM (inactive)
- GI50 (HT-29): > 100 µM (inactive)
- GI50 (RPMI-8226): > 100 µM (inactive)
- GI50 (UO-31): > 100 µM (inactive)
- GI50 (KM12): > 100 µM (inactive)
- GI50 (ACHN): > 100 µM (inactive)
- GI50 (CCRF-CEM): > 100 µM (inactive)
- GI50 (M14): > 100 µM (inactive)
- GI50 (A498): > 100 µM (inactive)
- GI50 (OVCAR-4): > 100 µM (inactive)
- GI50 (CAKI-1): > 100 µM (inactive)
- GI50 (MOLT-4): > 100 µM (inactive)
- GI50 (NCI-H460): > 100 µM (inactive)
- GI50 (IGROV-1): > 100 µM (inactive)

Compound: CC1(C)OCC(C2OC3OC(C)(C)OC3C2N)O1 (stereo not given)
- GI50 (COLO 205): > 100 µM (inactive)
- GI50 (RXF 393): > 100 µM (inactive)
- GI50 (UACC-257): > 100 µM (inactive)
- GI50 (NCI-H522): > 100 µM (inactive)
- GI50 (HCC 2998): > 100 µM (inactive)
- GI50 (NCI/ADR-RES): > 100 µM (inactive)
- GI50 (SF-539): > 100 µM (inactive)
- GI50 (HT-29): > 100 µM (inactive)
- GI50 (RPMI-8226): > 100 µM (inactive)
- GI50 (UO-31): > 100 µM (inactive)
- GI50 (KM12): > 100 µM (inactive)
- GI50 (ACHN): > 100 µM (inactive)
- GI50 (CCRF-CEM): > 100 µM (inactive)
- GI50 (M14): > 100 µM (inactive)
- GI50 (A498): > 100 µM (inactive)
- GI50 (OVCAR-4): > 100 µM (inactive)
- GI50 (CAKI-1): > 100 µM (inactive)
- GI50 (MOLT-4): > 100 µM (inactive)
- GI50 (NCI-H460): > 100 µM (inactive)
- GI50 (IGROV-1): > 100 µM (inactive)

Compound: Cn1c(=O)c2c(nc3[nH]c(=O)c(Br)cn32)n(C)c1=O
- GI50 (COLO 205): > 100 µM (inactive)
- GI50 (RXF 393): > 100 µM (inactive)
- GI50 (UACC-257): > 100 µM (inactive)
- GI50 (NCI-H522): > 100 µM (inactive)
- GI50 (HCC 2998): > 100 µM (inactive)
- GI50 (NCI/ADR-RES): > 100 µM (inactive)
- GI50 (SF-539): > 100 µM (inactive)
- GI50 (HT-29): > 100 µM (inactive)
- GI50 (RPMI-8226): > 100 µM (inactive)
- GI50 (UO-31): > 100 µM (inactive)
- GI50 (KM12): > 100 µM (inactive)
- GI50 (ACHN): > 100 µM (inactive)
- GI50 (CCRF-CEM): > 100 µM (inactive)
- GI50 (M14): > 100 µM (inactive)
- GI50 (A498): > 100 µM (inactive)
- GI50 (OVCAR-4): > 100 µM (inactive)
- GI50 (CAKI-1): > 100 µM (inactive)
- GI50 (MOLT-4): > 100 µM (inactive)
- GI50 (NCI-H460): > 100 µM (inactive)
- GI50 (IGROV-1): > 100 µM (inactive)
